{"source": "patent US6087401A", "about": "“Cyclopentenones, process for preparing the same, and the use thereof” (Takara Shuzo Co., Ltd., priority 1996, dated 2000)", "key": {"[1]": {"tested_on": "HL-60 cells", "experiment": "cancer cell differentiation (Wright-Giemsa stain)", "type": "cell-based, human", "conditions": "control around 10%", "description": "(2) To HL-60 cells was added 10^-4 μg/ml of the cyclopentenone and an incubation by the same manner as in Example 15-(1) was conducted for three days. […] The result was that the differentiated cells were around 10% in the control where no cyclopentenone was added while, in the fractions to which the cyclopentenone was added, 50% or more cells were differentiated to monocyte- or to macrophage-like cells.\nThe result was that the differentiated cells were around 10% in the control where no cyclopentenone was added while, in the fraction to which 0.005 μg/ml of the cyclopentenone was added, 25% or more cells were differentiated to mature bone marrow cells."}, "[2]": {"tested_on": "HL-60 cells", "experiment": "viable HL-60 cell number after incubation", "type": "cell-based, human", "conditions": "sixth day"}, "[3]": {"tested_on": "Lactobacillus homohiochii (IFO 13120)", "experiment": "antibacterial activity to hiochi bacteria, microorganism C", "type": "cell-based", "conditions": "five days; for Growth Turbidity (OD600): control 1.61", "description": "(§1) The testing microorganism was subjected to a stationary incubation for five days in an SI medium (Japan Brewery Association) containing 10% of ethanol to give a seed microorganism. The seed microorganism (0.1%) was added to 100 ml of 10% ethanol-containing SI medium to which the cyclopentenone was added in an amount of 0, 25, 50, 75 or 100 μg/ml (in terms of final concentration), then a stationary incubation was conducted for five days and the turbidity was measured. In measuring the turbidity, the value of OD600 was measured using an absorbance meter. A value of OD600 of the medium to which no testing microorganism was inoculated was deducted from the above value and this (growth turbidity) was used for the growth of the tested microorganism.\n(§2) The tested microorganisms were as follows. Thus, Lactobacillus fructivorans (IFO 13118) (testing microorganism A), Lactobacillus fructivorans (JCM 1198) (testing microorganism B) and Lactobacillus homohiochii (IFO 13120) (testing microorganism C) as true hiochi bacteria while Lactobacillus rhamnosus (IFO 3532) (testing microorganism D) was used as hiochi lactobacteria."}, "[4]": {"tested_on": "Legionella pneumophila (isolated from a washing of human bronchus)", "type": "cell-based", "conditions": "12 ppm, common logarithm"}, "[5]": {"tested_on": "Helicobacter pylori strains NCTC 11637 (ATCC 43504), 206 and 3401", "experiment": "MIC against Helicobacter pylori strains", "type": "cell-based", "conditions": "pH 6.0, 37° C., 3-4 days, all strains tested, read-out: MIC (90% or more inhibition)", "description": "(4) As to Helicobacter pylori strains, a standard strain NCTC 11637 (ATCC 43504) and clinically isolated strains from human stomach (206 and 3401; both stored at Department of Bacteriology, Hyogo Medical College) were used. Each strain was subjected to a shake incubation at 37° C. under a slightly aerophilic condition using an Aneropack Campiro (manufactured by Mitsubishi Gas Chemical) in a Brucella Broth Medium (manufactured by BBL) containing 7% of horse serum (manufactured by Bio Whittaker). The microorganism in a logarithmic growth phase was diluted with a Brucella Broth and used for the test. A 24-well plate (manufacturedby Falcon) was used for the experiments. The cyclopentenone was charged at the rate of 0.1 ml (1,000 μg)/well, subjected to a two-step dilution using PBS and immobilized by adding 0.9 ml/well of a medium [a Brucella agar medium (pH 6.0) containing 7% of horse serum (manufactured by BBL)]. The Brucella agar medium was previously adjusted to pH 6.0 with HCl and was used for the experiments. Each microorganism was inoculated at the rate of about 10^4 /50 μl/well. […] The amount of a sample (μg/ml) showing 90% or more inhibition was defined as the MIC."}, "[6]": {"tested_on": "Salmonella typhimurium LT-2 (ATCC 27106)", "experiment": "growth turbidity, microorganism (14)", "type": "cell-based", "conditions": "8 h, control 273", "source_text": "They were testing microorganism (13): Escherichia coli HB101 (ATCC 33694); testing microorganism (14): Salmonella typhimurium LT-2 (ATCC 27106); testing microorganism (15): Pseudomonas aeruginosa (IFO 3080); testing microorganism (16): Staphylococcus aureus 3A (NCTC 8319); testing microorganism (17): Bacillus subtilis (IFO 3034); and testing microorganism (18): Streptococcus mutans (GS5; stored at National Institute of Health).\nThe testing microorganisms were subjected to a seed culture overnight in an L-broth (1% tryptone, 0.5% yeast extract and […]; pH 7.0). The seed culture (5 μl) was inoculated to a medium to which 25-200 μg/ml of cyclopentenone was added to 5 ml of L-both and also to a medium to which nothing was added and a shake incubation was conducted at 37° C. to measure the growth. At the initiation of the incubation and also at eight hours thereafter, turbidity of the culture was measured using a Fuji Digital Turbidimeter (sold from Fuji Kogyo KK; manufactured by Akiyama Denki Seisakusho) under the condition that the adjusted scale was 82.3 and the growth of the tested microorganism was measured from the value (growth turbidity) obtained by deducting the turbidity at the initiation of incubation from that after eight hours. Incidentally, in the case of the testing microorganism (18), a brain heart infusion was used instead of L-broth."}, "[7]": {"tested_on": "Sarcoma-180", "experiment": "life-prolonging effect, subcutaneous Sarcoma-180", "type": "in vivo, female mice of ICR strain", "conditions": "about 80 mg/kg/day in drinking water, 40th day; control two out of eight", "description": "(2) Sixteen female mice of ICR strain of six weeks age (body weight: about 26 g) were used. Sarcoma-180 (5.5×10^6 cells/mouse) was subcutaneously injected into abdomen whereupon a control group (8 mice) and a group administered with the cyclopentenone (8 mice) were made.\nThe cyclopentenone was diluted with tap water and freely given to the cyclopentenone-administered group to make the dose of the cyclopentenone about 80 mg/kg/day using a water-supplying bottle. Tap water was similarly given to the control group. In both groups, feed was freely given during the course of the experiment."}, "[8]": {"tested_on": "Lactobacillus fructivorans (JCM 1198)", "experiment": "antibacterial activity to hiochi bacteria, microorganism B", "type": "cell-based", "conditions": "five days; for Growth Turbidity (OD600): control 2.03", "description": "as §1, §2"}, "[9]": {"tested_on": "EAC", "experiment": "life-prolonging effect, EAC", "type": "in vivo, female mice of DDY strain", "conditions": "intraperitoneal tumor"}}, "note": "Like-named read-outs stand apart in the source and are kept apart here.", "data": [{"smiles": "O=C1C=CC(O)C1O", "note": "(stereo not shown) [the cyclopentenone, 4,5-dihydroxy-2-cyclopenten-1-one]", "values": [{"measurement": "cells differentiated to mature bone marrow cells", "setting": "[1]; 0.005 μg/ml, three or six days", "result": "≥ 25", "unit": "%"}, {"measurement": "cells differentiated to monocyte- or to macrophage-like cells", "setting": "[1]; 10^-4 μg/ml, three days", "result": "≥ 50", "unit": "%"}, {"measurement": "viable cells", "setting": "[2]; 10 μg/ml", "result": "no viable cell was found"}, {"measurement": "inhibition at 0.01 µg/mL", "setting": "[2]; Homo sapiens, HL-60, 0.01 μg/ml, vs control, read-out: cell growth inhibition", "result": "~40", "unit": "%"}, {"measurement": "inhibition at 0.1 µg/mL", "setting": "[2]; Homo sapiens, HL-60, 0.1 μg/ml, vs control, read-out: cell growth inhibition", "result": "~55", "unit": "%"}, {"measurement": "inhibition at 1 µg/mL", "setting": "[2]; Homo sapiens, HL-60, 1 μg/ml, vs control, read-out: cell growth inhibition", "result": "~90", "unit": "%"}, {"measurement": "Growth Turbidity (OD600)", "setting": "[3]; 25 μg/ml", "result": 0.32}, {"measurement": "Growth Turbidity (OD600)", "setting": "[3]; 50 μg/ml", "result": 0.08}, {"measurement": "Growth Turbidity (OD600)", "setting": "[3]; 75 μg/ml", "result": 0}, {"measurement": "MIC", "setting": "[3]; IFO13120, 120 h, read-out: concentration completely inhibiting growth", "result": 75, "unit": "µg/mL"}, {"measurement": "Numbers of Tested Microorganism Cells after Incubation", "setting": "[4]; 16 h, 0 ppm 6.9", "result": 5.7, "unit": "log10 CFU/ml"}, {"measurement": "Numbers of Tested Microorganism Cells after Incubation", "setting": "[4]; 96 h, 0 ppm 8.7", "result": 8.3, "unit": "log10 CFU/ml"}, {"measurement": "MIC", "setting": "[5]", "result": 32, "unit": "µg/mL"}, {"measurement": "Growth Turbidity", "setting": "[6]; 100 μg/ml", "result": 0}, {"measurement": "Growth Turbidity", "setting": "[6]; 200 μg/ml", "result": 0}, {"measurement": "numbers of living mice (out of eight)", "setting": "[7]", "result": "seven"}, {"measurement": "Growth Turbidity (OD600)", "setting": "[8]; 25 μg/ml", "result": 0.01}, {"measurement": "Growth Turbidity (OD600)", "setting": "[8]; 50 μg/ml", "result": 0}, {"measurement": "Growth Turbidity (OD600)", "setting": "[8]; 75 μg/ml", "result": 0}, {"measurement": "MIC", "setting": "[8]; Fructilactobacillus fructivorans, JCM1198, 120 h, read-out: concentration completely inhibiting growth", "result": 50, "unit": "µg/mL"}, {"measurement": "increase in life span", "setting": "[9]", "result": 255, "unit": "%"}, {"measurement": "mean survival days", "setting": "[9]; control 15.8 days", "result": 40.3, "unit": "days"}]}]}
